Assay results published in patent US20240287138A1, “CYCLIC PEPTIDES FOR INHIBITING TNF RECEPTOR 1 ACTIVITY” (Merck Sharp & Dohme LLC, priority 2023, published 2024).
pIC50, pKd: −log10 of the molar value. Where two headings read alike, the source gives them in different places. Numbered stars: 1 amine (or outer) side, 2 acyl side, 3 side chain; on linkers, the order of the positions; unused ones are H or OH. Bridge positions count the residues as written; N and C are the ends. Square brackets hold non-standard residues; d marks the D form. Peptide text beside a SMILES is read from it. Trp(βS-Me,7-OMe) = COc1cccc2c([C@H](C)[C@H](N)C(=O)O)c[nH]c12; Trp(1-CH2COOH) = N[C@@H](Cc1cn(CC(=O)O)c2ccccc12)C(=O)O; X32 = NC(=O)c1ccc([C@@H](O)C(N[*:1])C(=O)[*:2])cc1; Trp(7-CN) = N#Cc1cccc2c(C[C@H](N)C(=O)O)c[nH]c12; Trp(7-Cl) = N[C@@H](Cc1c[nH]c2c(Cl)cccc12)C(=O)O; Phe(4-CONH2) = NC(=O)c1ccc(C[C@H](N)C(=O)O)cc1; Phe(4-COOH) = N[C@@H](Cc1ccc(C(=O)O)cc1)C(=O)O; dPro(4S-NH2) = N[C@@H]1CN[C@@H](C(=O)O)C1; Pip(5R-OH) = O=C(O)[C@@H]1CC[C@@H](O)CN1; X1 = O=C([C@@H]1CC[C@H](N[*:1])C1)[*:2]; X14 = CC(C)CCC[C@H](N[*:1])C(=O)[*:2]; Pip(4-aza) = O=C(O)[C@@H]1CNCCN1; 4Pal = N[C@@H](Cc1ccncc1)C(=O)O; NMeE = CN[C@@H](CCC(=O)O)C(=O)O; Lys(Me) = CNCCCC[C@H](N)C(=O)O; αMeS = C[C@](N)(CO)C(=O)O; Nle = CCCC[C@H](N)C(=O)O; NEtG = CCNCC(=O)O; Sar = CNCC(=O)O

Key:
[1] = molecular target: T1, human TNFR2 ECD protein (Homo sapiens, UniProt P20333); experiment: SPR off-target binding (selectivity) to human TNFR2 ECD
T1 construct: HRV 3C protease cleavage site (C); 6His (C, cleaved yes); made in house; host or cells: Sf21 insect cells (baculovirus), secreted
T1 sequence (P20333 23-257): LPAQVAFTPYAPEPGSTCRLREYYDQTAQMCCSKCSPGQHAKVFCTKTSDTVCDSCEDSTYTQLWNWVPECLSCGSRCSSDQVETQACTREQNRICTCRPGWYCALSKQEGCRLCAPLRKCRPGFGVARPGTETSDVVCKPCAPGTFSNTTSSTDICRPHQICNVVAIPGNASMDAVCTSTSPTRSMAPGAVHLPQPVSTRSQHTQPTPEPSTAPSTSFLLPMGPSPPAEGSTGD
Experimental: (§1) B. Procedure for Binding Affinity and Selectivity measured by SPR
(§2) Affinity and selectivity for hTNFR1 and TNFR2 was determined using SPR. Human TNFR1 or TNFR2 genes (extracellular domain only) were synthesized with a C-terminal Avi-tag, HRV 3C protease cleavage site followed by a 6His-tag for affinity purification. The final gene product was cloned into pBAC™-1 vector (Millipore Sigma) for expression testing in insect cells. Constructs were transfected into Sf21 cells for baculovirus generation followed by protein expression analysis in Sf21 and Tni cell lines. Large scale expression in Sf21 cells was performed using baculovirus infected insect cells (BIICs) infected at a MOI=2.0 grown for 72 h. Target proteins secreted into the media were harvested via centrifugation and concentrated using diafiltration. TNFR was purified by immobilized metal ion affinity chromatography (IMAC) using a Ni-Sepharose HisTrap™ column (Cytiva™). Isolated TNFR had His tag removed using HRV 3C protease followed by additional purification using Ni-NTA chromatography. Biotinylation was performed on Ni-NTA flow-through fractions concentrated to 45 μM and treated with BirA ligase (1:100, μg/μg ratio) in 50 mM Tris pH 7.5, 150 mM NaCl, 50 μM biotin, 10 mM magnesium acetate, 10 mM ATP at 4° C. for 20 h. Final purification of biotin-TNFR and buffer exchange into 20 mM HEPES pH 7.5, 150 mM NaCl was performed using a HiLoad® Superdex® 200 26/60 column (Cytiva™). Highly purified protein was aliquoted and stored at −80° C.
(§3) The SPR assay uses a Cytiva™ 8K or 8K+ biosensor instrument to measure the kinetics of peptide analytes binding to captured human TNFR1 extracellular domain (ECD) protein; peptide analytes are also evaluated for any off-target binding to human TNFR2 ECD protein in parallel. Recombinant human TNFR1 ECD and human TNFR2 ECD proteins, biotinylated via engineered C-terminal avi-tags, are immobilized to a regenerable streptavidin biosensor chip surface (Cytiva™ Biotin CAPture kit, Series S; cat. #28920234). Peptide analytes binding to immobilized human TNFR1 ECD protein and their subsequent dissociation are conducted in a buffer of 10 mM HEPES pH 7.4, 150 mM NaCl, 3 mM EDTA, 0.05% P20,2% DMSO under laminar flow conditions and measured in response units (RU), which are directly proportional to the accumulated mass on the surface of the biosensor chip; the biosensor chip surface is regenerated via Cytiva™ proprietary methods between the evaluation of each peptide analyte. […] The SPR assay determines the association and dissociation rate constants, kon and koff, for each peptide analyte and, from these values, calculates the binding affinity, […] reported in Table 2.

[2] = molecular target: T2, TNFα-induced NF-κB signal transduction pathway (TNFR1 signaling) in THP-1 cells (Homo sapiens, UniProt P19438); experiment: THP-1 Lucia NF-κB reporter cell assay, inhibition of TNFα-induced NF-κB signaling; format: cell-based; conditions: THP-1 NF-κB Lucia reporter cells, 10 ng/mL TNFα, 16-18 h, secreted luciferase; read-out: THP-1 IC50
T2 sequence (P19438 30-455): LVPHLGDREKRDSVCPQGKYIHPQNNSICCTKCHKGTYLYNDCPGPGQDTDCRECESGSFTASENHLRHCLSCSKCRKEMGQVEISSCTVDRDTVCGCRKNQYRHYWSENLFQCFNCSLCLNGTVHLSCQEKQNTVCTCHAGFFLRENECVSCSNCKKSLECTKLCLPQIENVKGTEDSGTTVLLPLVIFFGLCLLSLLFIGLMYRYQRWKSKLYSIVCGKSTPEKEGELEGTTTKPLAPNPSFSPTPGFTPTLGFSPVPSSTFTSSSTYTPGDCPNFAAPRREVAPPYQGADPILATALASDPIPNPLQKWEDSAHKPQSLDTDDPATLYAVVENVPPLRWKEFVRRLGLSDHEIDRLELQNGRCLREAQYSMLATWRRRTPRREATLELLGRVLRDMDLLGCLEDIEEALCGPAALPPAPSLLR
Procedure, shortened: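 IC50 from a 4-parameter logistic fit of secreted luciferase luminescence (QUANTI-Luc), normalised to min/max controls. Reporter THP-1 cells were exposed to peptides for 1 h at 37 °C before 10 ng/mL TNFα (final) was added overnight (16–18 h).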

[3] = molecular target: T3, human TNFR1 extracellular domain (ECD) protein (Homo sapiens, UniProt P19438); experiment: SPR binding affinity to captured human TNFR1 ECD
T3 construct: HRV 3C protease cleavage site (C); 6His (C, cleaved yes); made in house; host or cells: Sf21 insect cells (baculovirus), secreted
T3 sequence (P19438 30-211): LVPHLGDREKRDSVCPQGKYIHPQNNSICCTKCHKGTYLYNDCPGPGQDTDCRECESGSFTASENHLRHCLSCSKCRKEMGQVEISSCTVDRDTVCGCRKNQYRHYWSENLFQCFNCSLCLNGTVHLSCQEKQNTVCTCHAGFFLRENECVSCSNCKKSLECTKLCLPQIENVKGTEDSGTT
Experimental: as §1, §2, §3

SMILES	pKd [1]	pIC50 [2]	pKd [3]	pKd ([1]; biotinylated human TNFR2 ECD on streptavidin chip, read-out: SPR hTNFR2 KD)	pKd ([3]; biotinylated human TNFR1 ECD on streptavidin chip, from kon and koff, read-out: SPR hTNFR1 KD)
CNCCCC[C@@H]1NC(=O)[C@@H]2CC[C@@H](C2)NC(=O)[C@H]([C@@H](C)c2c[nH]c3c(OC)cccc23)NC(=O)CN(C)C(=O)[C@H](Cc2ccc(O)cc2)NC(=O)[C@H](Cc2ccc(C(N)=O)cc2)NC(=O)[C@](C)(CO)NC(=O)[C@H](Cc2c[nH]c3c(Cl)cccc23)NC(=O)[C@H](Cc2ccncc2)NC(=O)[C@H](CC(N)=O)NC(=O)[C@H](CCC(=O)O)N(C)C(=O)[C@H](Cc2c[nH]c3ccccc23)NC(=O)[C@@H]2CC[C@@H](O)CN2C(=O)[C@H](Cc2ccncc2)NC1=O [SEQ ID NO. 86] (cyclo([4Pal][Trp(7-Cl)][αMeS][Phe(4-CONH2)]Y[Sar][Trp(βS-Me,7-OMe)][X1][Lys(Me)][4Pal][Pip(5R-OH)]W[NMeE]N))	< 6.00	9.30	10.10		
CCCC[C@@H]1NC(=O)[C@@H]2CC[C@@H](C2)NC(=O)[C@H]([C@@H](C)c2c[nH]c3c(OC)cccc23)NC(=O)CN(C)C(=O)C([C@H](O)c2ccc(C(N)=O)cc2)NC(=O)[C@H](Cc2ccc(C(N)=O)cc2)NC(=O)[C@](C)(CO)NC(=O)[C@H](Cc2c[nH]c3c(C#N)cccc23)NC(=O)[C@H](Cc2ccc(C(=O)O)cc2)NC(=O)[C@H](CC(N)=O)NC(=O)[C@H]2C[C@H](N)CN2C(=O)[C@H](Cc2cn(CC(=O)O)c3ccccc23)NC(=O)[C@@H]2CC[C@@H](O)CN2C(=O)[C@H](Cc2ccncc2)NC1=O (stereo partly drawn) [SEQ ID NO. 87] (cyclo([4Pal][Pip(5R-OH)][Trp(1-CH2COOH)][dPro(4S-NH2)]N[Phe(4-COOH)][Trp(7-CN)][αMeS][Phe(4-CONH2)][X32][Sar][Trp(βS-Me,7-OMe)][X1][Nle]))		9.15		< 6.00	10.70
COc1cccc2c([C@H](C)[C@@H]3NC(=O)CN(C)C(=O)[C@H](Cc4ccc(O)cc4)NC(=O)[C@H](Cc4ccc(C(N)=O)cc4)NC(=O)[C@](C)(CO)NC(=O)[C@H](Cc4c[nH]c5c(Cl)cccc45)NC(=O)[C@H](Cc4ccc(C(=O)O)cc4)NC(=O)[C@H](CC(N)=O)NC(=O)[C@H](CCC(=O)O)N(C)C(=O)[C@H](Cc4c[nH]c5ccccc45)NC(=O)[C@@H]4CNCCN4C(=O)[C@H](Cc4ccncc4)NC(=O)[C@H](CCCC(C)C)NC(=O)CSC[C@@H](C(N)=O)NC3=O)c[nH]c12 [SEQ ID NO. 93] ({CH2CO}-[X14][4Pal][Pip(4-aza)]W[NMeE]N[Phe(4-COOH)][Trp(7-Cl)][αMeS][Phe(4-CONH2)]Y[Sar][Trp(βS-Me,7-OMe)]C-NH2; thioether N-14)	< 6.00	8.57	9.11		
CCCC[C@@H]1NC(=O)[C@@H]2CC[C@@H](C2)NC(=O)[C@H]([C@@H](C)c2c[nH]c3c(OC)cccc23)NC(=O)CN(C)C(=O)[C@H](Cc2ccc(O)cc2)NC(=O)[C@H](Cc2ccc(C(=O)O)cc2)NC(=O)[C@](C)(CO)NC(=O)[C@H](Cc2c[nH]c3c(Cl)cccc23)NC(=O)[C@H](Cc2ccncc2)NC(=O)[C@H](CC(N)=O)NC(=O)CN(CC)C(=O)[C@H](Cc2c[nH]c3ccccc23)NC(=O)[C@@H]2CNCCN2C(=O)[C@H](Cc2ccncc2)NC1=O [SEQ ID NO. 94] (cyclo([4Pal][Trp(7-Cl)][αMeS][Phe(4-COOH)]Y[Sar][Trp(βS-Me,7-OMe)][X1][Nle][4Pal][Pip(4-aza)]W[NEtG]N))	< 6.00	9.10	10.15		
